The test system of series [1] is Staphylococcus epidermidis. Description: Antibacterial activity against Staphylococcus epidermis ATCC 12228 measured after 18 to 24 hrs by CLSI-based microdilution technique. The note with it: time 18-24 hrs. It counts as functional. Background: In broth dilution the organism is exposed to a series of concentrations in liquid medium.
The subject of a further series is Enterococcus faecalis. Description: Antibacterial activity against Enterococcus faecalis incubated for 20 hrs by CLSI-based broth microdilution method. It counts as functional.
Another series relates to Enterococcus faecium. The experiment in a line: Antibacterial activity against Enterococcus faecium BM4105 incubated for 20 hrs by CLSI-based broth microdilution method. It counts as functional.
For series [2], the system named is Staphylococcus epidermidis. The experiment in a line: Antibacterial activity against Staphylococcus epidermidis incubated for 20 hrs by CLSI-based broth microdilution method. The series is classed as functional.
The test system of another series is Staphylococcus aureus. The experiment in a line: Antibacterial activity against Staphylococcus aureus ATCC 25913 incubated for 20 hrs by CLSI-based broth microdilution method. The series is classed as functional.
A short description of series [3]: Volume of distribution in Sprague-Dawley rat plasma at 5 mg/kg, ip measured after 10 to 180 mins by HPLC-MS analysis. The series is classed as ADME, organism-based. The note with it: in vivo, time 10-180 min.
A short description of series [4]: Half life in Sprague-Dawley rat plasma at 5 mg/kg, ip measured after 10 to 180 mins by HPLC-MS analysis. It counts as ADME, organism-based. The conditions noted are these: time 10-180 min.
Series [5] can be described thus: Cmax in Sprague-Dawley rat brain at 5 mg/kg, ip measured up to 30 mins by HPLC-MS analysis. The series is classed as ADME, organism-based. On the set-up: route intraperitoneal, dose 5 mg/kg, time <=30.
The nature of series [6]: Ratio of drug level in Sprague-Dawley rat brain to plasma at 5 mg/kg, ip measured after 10 to 180 mins by HPLC-MS analysis. The series is classed as ADME, organism-based. The note with it: brain and plasma, time 10-180 min, read-out: BPR.
The target in series [7] is Amyloid-beta precursor protein (Homo sapiens, UniProt P05067). Description: Inhibition of self-induced amyloid beta (1 to 42) (unknown origin) aggregation incubated for 24 hrs by ThT fluorescence assay.
A short description of series [8]: AUC (0 to infinity) in Sprague-Dawley rat plasma at 5 mg/kg, ip measured after 10 to 180 mins by HPLC-MS analysis. It counts as ADME, organism-based. On the set-up: route intraperitoneal, time lower 10 min, dose 5 mg/kg, time upper 180 min.
For another series, the system named is Plasmodium falciparum. Description: Antiplasmodial activity against Plasmodium falciparum NF54 treated for 96 hrs with replacement of growth medium once a day for 4 days. The note with it: NF54, 96 h. It counts as functional, organism-based.

The term MIC denotes the least concentration at which growth counts as inhibited. What is called half-life is the time needed for the level to fall by half in the phase considered. For orientation: Cmax means the maximum level reached in the sampled fluid or tissue. In general, IC50 refers to the concentration that inhibits the measured activity by half. The low end stands for higher potency, the high end for lower potency. What is called AUC(0-inf) is total exposure, with the tail of the curve extrapolated.

≈ marks a conversion by molar mass, not a printed value.

Sequence of Amyloid-beta precursor protein (P05067 whole entry): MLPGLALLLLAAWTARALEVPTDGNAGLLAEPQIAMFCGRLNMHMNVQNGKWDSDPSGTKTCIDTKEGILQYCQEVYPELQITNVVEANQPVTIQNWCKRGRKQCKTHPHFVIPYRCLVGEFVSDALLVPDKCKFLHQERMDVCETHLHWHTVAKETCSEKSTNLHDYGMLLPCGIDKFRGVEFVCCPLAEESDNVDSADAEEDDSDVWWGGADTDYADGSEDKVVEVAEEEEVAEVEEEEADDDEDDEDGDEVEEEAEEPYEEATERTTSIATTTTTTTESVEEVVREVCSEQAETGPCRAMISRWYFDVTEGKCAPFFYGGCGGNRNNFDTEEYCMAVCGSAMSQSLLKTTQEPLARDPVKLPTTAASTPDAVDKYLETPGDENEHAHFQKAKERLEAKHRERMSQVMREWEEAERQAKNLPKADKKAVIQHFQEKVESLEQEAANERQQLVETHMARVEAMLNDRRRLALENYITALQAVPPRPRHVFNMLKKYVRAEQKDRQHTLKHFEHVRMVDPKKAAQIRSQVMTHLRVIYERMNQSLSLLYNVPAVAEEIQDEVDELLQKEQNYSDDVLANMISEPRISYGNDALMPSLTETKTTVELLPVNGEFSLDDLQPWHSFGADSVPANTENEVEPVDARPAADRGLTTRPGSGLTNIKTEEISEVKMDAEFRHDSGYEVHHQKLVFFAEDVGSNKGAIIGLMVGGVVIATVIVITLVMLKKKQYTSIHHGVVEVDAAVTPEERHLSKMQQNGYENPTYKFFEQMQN

In series [1], `CN(C)c1ccc2c(-c3cc(NC(=S)NCCC(=O)NC(CCCNC(=O)c4[nH]ccc(=O)c4O)(CCCNC(=O)c4[nH]ccc(=O)c4O)CCCNC(=O)c4[nH]ccc(=O)c4O)ccc3C(=O)[O-])c3ccc(=[N+](C)C)cc-3oc2c1` yielded a minimal inhibitory concentration (MIC) of 16 µM (≈ 18.1 µg/mL).

Consider `CCN(CC)c1ccc2c(-c3ccc(C(=O)NCc4c(O)c(=O)cc(C)n4C)cc3)c3ccc(=[N+](CC)CC)cc-3oc2c1`, for which the MIC (in the series on Enterococcus faecalis; in the series with Enterococcus faecium; in [2]; against Staphylococcus aureus) was 11 µM throughout.

As for `C#CCN(C)CCCn1ccc(=O)c(O)c1C`, the Vd in series [3] was determined as 18.7 L/kg. The compound also had a half-life in series [4] of 1.6 h. Also, the peak level in series [5] (Cmax) was 207 ng/mL. In addition, the Kp in [6] was 0.69. The compound further displayed an IC50 in series [7] of 2850 nM. The same compound showed an AUC(0-inf) in series [8] of 636 ng·h/mL.

In turn, `C=CCN1C(c2ccccn2)CC(=O)C(C(=O)OC)C1c1ccccn1` (configuration not stated) registered a half-inhibitory concentration (IC50) in the series with Plasmodium falciparum of 1400 nM.

Source of the values: ChEMBL document CHEMBL4706610, “Hydroxypyridinone-Based Iron Chelators with Broad-Ranging Biological Activities” (J Med Chem, 2020).
